The source of these data is patent US9937156B2, “Modulation of MRTF-A activity in pathologic fibrosis and wound healing” (The Board of Regents of the University of Texas System, priority 2013, dated 2018).

The assay has as its system tail tip fibroblasts (TTFs), MRTF-A KO and WT. Put plainly: SMA expression in tail tip fibroblasts from MRTF-A KO and WT mice. The class given is cell-based, mouse. The settings on record: TGF-β1 48 hrs. How it is done: Mouse NIH/3T3 and human BR5 fibroblasts were grown as in DMEM supplemented with 10% BCS or FBS at 37° C. in a 5% CO2 incubator as previously described (Rhee et al., 2007). Primary mouse tail tip fibroblasts (TTFs) were isolated from 6- to 8-wk-old myocardin-related transcription factor (MRTF)-A−/− or wild-type littermates and cultured in DMEM supplemented with 10% FBS, nonessential amino acids, L-glutamine, and sodium pyruvate as described previously (Song et al., 2012). Once TTFs became confluent, cells were frozen in 10% DMSO containing growth media for future use before passage 3.
NIH/3T3 cells were transfected with 10 ng empty flag or flag epitope-tagged MRTF-A vector along with 100 ng smooth muscle a-actin (SMA), atrial natriuretic factor (ANF), SM22, or skeletal actin (SKA) luciferase reporter and 20 ng of β-galactosidase (β-gal) expression construct using Fugene6 (Roche). Plasmid DNA content was kept constant using empty pcDNA3.1-flag. BR5, NIH/3T3, or TTF cells were infected with adenovirus directing the expression of flag-MRTF-A, HA-MRTF-A, or β-gal as control at the multiplicity of infection (MOI) noted in the text. For experiments using chemical compounds or growth factors, cells were cultured in serum-free media (SF) for 24 h before treatment, followed by an additional 24- to 48-hr incubation in SF media treated with TGF-β1 (10 ng/mL, R&D Systems) solubilized in 4 mM HCl/1% BSA/PBS or isoxazole (20 μM) solubilized inDMSO.
Cells were treated with the indicated factor for 24 h before fixation with methanol at −20° C. for 10 min. Indirect immunofluorescence was performed by incubating with the following primary antibodies at 4° C. overnight: mouse monoclonal Cy3-conjugated anti-SMA antibody (Sigma, clone 1A4, 1:200) and rabbit monoclonal anti-HA antibody (Cell Signaling, 1:300). A secondary goat Alexa Fluor 488-conjugated anti-rabbit IgG antibody (Invitrogen, 1:200) was used to visualize HA by incubation at RT for 1 hr. All images were captured using an Olympus IX81 confocal microscope. […]

On to “TGF-β1: growth factor (R&D Systems) used at 10 ng/mL to stimulate fibroblast differentiation”, for which the “expression of genes encoding SMC contractile proteins (SMA and SM22), qPCR and Western blot” value (MRTF-A-deficient TTFs) is reported as “blunted”. Further, for the setting “MRTF-A-deficient fibroblasts”, the SMA-positive stress fibers entry is “did not display an enrichment”. Also, the “morphology and SMA-positive stress fibers” value (WT fibroblasts) was “adopting an elongated morphology and producing SMA-positive stress fibers”.
